The source of these data is patent US6020336A, “Indole and indazole compounds” (priority 1997, dated 2000).

In experiment [1] the test system is saphenous vein of rabbits. Put plainly: Contraction of the saphenous vein isolated from rabbit. Particulars: Oryctolagus cuniculus, rabbit saphenous vein rings; for Emax: % relative to the maximum effect induced by KCl (100 mM), read-out: maximum response (contraction of the saphenous vein); for EC50: cumulative doses 10^-9 to 10^-4 M, 37° C., tension as % of KCl maximum. On the procedure:
(§1) The activity of the compounds of the invention has been evaluated in a pharmacological test that measures their potential for contracting the saphenous vein isolated from a dog or rabbit, as described by Humphrey et al. (Br. J. Pharmacol., 94, 1123, 1988).
(§2) The test are carried out on saphenous veins of dogs (10-25 kg) or of rabbits (2-3 kg) which have ben anaesthetised with pentobarbital (30 mg/kg i.v.). The saphenous veins are removed quickly and cut into rings. The rings are mounted between two hooks in vessels maintained at 37° C. containing physiological saline (composition in mM:NaCl 118.3; KCl 4.7; CaCl2 2.5; MgSO4 1.2; KH2 PO4 1.2; NaHCO3 25.0; Ca-EDTA 0.026 and glucose 11.1).
(§3) A mixture of 95% O2 --5% CO2 is bubbled through the physiological saline solution. The lower hook consists of the fixed point whilst the upper hook is connected to an isometric force sensor. The tissues are subjected to a base tension of 1.5 grammes (dog) and of 1 gramme (rabbit). The test pharmacological substances are prepared immediately prior to use; they are solubilised in water or in dimethyl sulphoxide.
(§4) After being mount, the preparations are left to rest for 60 minutes, rinsing operations being carried out every 30 minutes. The organ is then placed in the presence of phenoxybenzamine (5×10^-8 M) for 20 minutes. That agent is eliminated by a number of successive washing operations over the course of 45 minutes. After readjustment of the base tension, contraction is brought about by KCl (100 mM). After washing and return to the base line, contraction is induced by 5-hydroxytryptamine (10^-5 M).
(§5) After washing and return to the base line, a dose/response curve for the pharmacological substances is produced by the addition of cumulative doses (10^-9 to 10^-4 M).
(§6) The test enables the 50% effective concentration (EC50) of the compounds of the invention to be determined.
The EC50 is calculated in the following manner: the tension values are first converted into percentages relative to the maximum effect induced by KCl. The effective concentration 50% (ED50) is determined by non-linear regression according to the model of the law of mass action of Michaelis-Menten.

Experiment [2] relates to saphenous vein of dogs. Put plainly: Contraction of the saphenous vein isolated from dog. Particulars: Canis lupus familiaris, dog saphenous vein rings. On the procedure: as §1, §2, §3, §4, §5, §6
The EC50 is calculated in the following manner: the tension values are first converted into percentages relative to the maximum effect induced by KCl. […]

For orientation: EC50 means the concentration that produces a half-maximal response. A high value points to lower potency in that assay.

Counter-ions that a name gives are not always drawn.

Take `COc1cncnc1N1CCN(CCCn2ccc3ccc(-n4cnnc4)cc32)CC1` [Example 5, 1-{3-[4-(5-Methoxypyrimidin-4-yl)piperazin-1-yl]propyl}-6-([1,2,4]-triazol-4-yl)indole dihydrochloride]: in experiment [1], the Emax is 75% and it took 300 nM to reach a half-maximal effect (EC50). The Emax at 100 µM in experiment [2] (100 μM, % relative to the maximum effect induced by KCl (100 mM), read-out: maximum contraction at a concentration of 100 μM) stood at 6%.

`CN(C)CCn1ncc2ccc(-n3cnnc3)cc21` [Example 6, 1-(Dimethylaminoethyl)-6-([1,2,4]triazol-4-yl)indazole dihydrochloride]: the Emax in experiment [1] came out at 87%; in experiment [2] (% relative to the maximum effect induced by KCl (100 mM), read-out: maximum response (contraction of the saphenous vein)), 47%. For the same molecule, the EC50 in experiment [1] came out at 120 nM; in experiment [2] (cumulative doses 10^-9 to 10^-4 M, 37° C., tension as % of KCl maximum), 170 nM.
